As usually defined, the EC50 is the concentration needed to bring the measured effect to its halfway point. A higher EC50 goes with a need for much substance.

The results in this text go back to article PMC12476453, “Chemosensation of the pheromone spermine by the olfactory TAAR-like receptor TAAR348” (Cell Discovery, 2025).

The experiment concerns the target T1, TAAR348 (Petromyzon marinus, UniProt A0A678XLR1).
T1 construct: TAAR-like GPCR overexpressed in HEK293 cells with Gs BRET2 sensors; cryo-EM complex with Gs (Gαs, Gβ, Gγ), NB35 and ScFv16; construct details only in supplement
T1 sequence (A0A678XLR1 1-348): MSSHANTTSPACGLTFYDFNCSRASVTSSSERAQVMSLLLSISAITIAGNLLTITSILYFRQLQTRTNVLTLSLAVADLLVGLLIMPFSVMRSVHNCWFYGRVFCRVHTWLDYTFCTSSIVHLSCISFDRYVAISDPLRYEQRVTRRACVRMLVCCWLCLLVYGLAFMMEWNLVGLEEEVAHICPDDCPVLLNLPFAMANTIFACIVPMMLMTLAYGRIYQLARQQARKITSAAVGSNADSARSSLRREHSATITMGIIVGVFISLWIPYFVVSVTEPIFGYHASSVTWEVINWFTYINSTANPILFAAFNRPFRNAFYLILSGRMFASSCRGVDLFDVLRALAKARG
Briefly: BRET2 G protein trimer dissociation assay (Gs). In kind it is cell-based. (In general: Bioluminescence resonance energy transfer reports proximity on the nanometre scale.)

SMILES strings stand for the structures.

Take `NCCCNCCCCNCCCN` [spermine]: the EC50 is 155 ± 6.9 nM.
